From patent publication US20200405697A1, “Antitumor Agent” (Taiho Pharmaceutical Co., Ltd, priority 2017, published 2020)

Tests used:
[1] = tested on: A549 (Human lung cancer cell line); assay: Effect of combination of sulfonamide compound and other antitumor agent (CellTiter-Glo, combination index): A549
[2] = tested on: MV-4-11 (Human blood cancer cell line); assay: Effect of combination of sulfonamide compound and other antitumor agent (CellTiter-Glo, combination index): MV-4-11
Procedure: Each cell line was seeded at 90 L/well to a 96-well culture plate (Thermo Fisher Scientific, Inc.) according to the above tables. The cell-seeded plate was cultured in an incubator set to 37° C. and 500 CO2. On the day following seeding, varying concentrations of the sulfonamide compound and the other antitumor agent were added in combination to the cells. […] The serial dilutions of each compound, or DW was added at 5μL/well to the plate such that each compound and DW, or the sulfonamide compound and the other antitumor agent were combined. […] The plate after the addition was cultured at 37° C. for 3 days under 5% CO2 conditions.
Three days later, CellTiter-Glo(R) 2.0 Reagent (Promega Corporation) was added at 100 μL/well, and the amount of luminescence was measured using a plate reader EnSpire(R) Multimode Plate Reader (PerkinElmer Co., Ltd.).
An average value from 3 wells was calculated as to each drug condition from the obtained data, and cell survival rate normalized against control wells supplemented with the vehicle (DW) was calculated. A Fa (fractional inhibition) value was calculated by subtracting the cell survival rate from 1.

[3] = target: T1, human RNR (histidine tagged human M1 and human M2 proteins) (Homo sapiens, UniProt P23921); assay: Human RNR inhibition effect (dCDP formation from CDP); assay type: biochemical; conditions: 10 μM CDP, 37° C. for 30 minutes, read-out: RNR inhibitory activity IC50
T1 construct: made in house; host or cells: Escherichia coli
T1 sequence (P23921 1-792): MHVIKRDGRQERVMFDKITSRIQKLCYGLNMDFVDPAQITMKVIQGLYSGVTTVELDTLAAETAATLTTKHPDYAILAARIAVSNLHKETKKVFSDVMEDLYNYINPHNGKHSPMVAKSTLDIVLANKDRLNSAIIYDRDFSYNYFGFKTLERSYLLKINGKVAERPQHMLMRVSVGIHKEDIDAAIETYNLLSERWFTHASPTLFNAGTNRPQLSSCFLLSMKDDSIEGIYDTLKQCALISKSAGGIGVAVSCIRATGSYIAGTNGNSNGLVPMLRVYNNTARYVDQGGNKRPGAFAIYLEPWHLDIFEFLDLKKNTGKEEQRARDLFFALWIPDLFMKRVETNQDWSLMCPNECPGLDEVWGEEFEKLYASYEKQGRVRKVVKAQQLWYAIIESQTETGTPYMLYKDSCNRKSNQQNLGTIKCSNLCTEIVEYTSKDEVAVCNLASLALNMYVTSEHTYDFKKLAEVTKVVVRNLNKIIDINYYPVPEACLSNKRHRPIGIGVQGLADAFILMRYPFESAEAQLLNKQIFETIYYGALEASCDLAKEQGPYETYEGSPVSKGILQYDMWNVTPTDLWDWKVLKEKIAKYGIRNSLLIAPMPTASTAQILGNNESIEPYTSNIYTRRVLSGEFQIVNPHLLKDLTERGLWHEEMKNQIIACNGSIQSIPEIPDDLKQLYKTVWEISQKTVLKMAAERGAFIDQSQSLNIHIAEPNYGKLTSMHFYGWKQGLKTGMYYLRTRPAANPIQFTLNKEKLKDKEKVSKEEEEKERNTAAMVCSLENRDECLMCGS
Outline: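 His-tagged human M1 (isoform 1) and N-terminal 59-aa-truncated M2 (isoform 2), E. coli-expressed, Ni-purified, preincubated 20 min with compound (1% DMSO). Reaction with 10 μM CDP, 2 mM ATP, 0.24 mM NADPH, 6 mM DTT, 4 mM Mg acetate, 100 mM KCl, 50 mM HEPES pH 7.2, 30 min at 37° C. dCDP formed quantified by reverse-phase HPLC after heat stop.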

[4] = Example Compound 14 874 nM + Cytarabine 72.2 nM
[5] = Example Compound 14 1310 nM + Cytarabine 108 nM
[6] = Example Compound 14 1970 nM + Cytarabine 163 nM
[7] = Example Compound 14 2950 nM + Cytarabine 244 nM
[8] = Example Compound 14 4420 nM + Cytarabine 365 nM
[9] = Example Compound 209A 188 nM + Cytarabine 72.2 nM
[10] = Example Compound 209A 282 nM + Cytarabine 108 nM
[11] = Example Compound 209A 635 nM + Cytarabine 244 nM
[12] = Example Compound 209A 952 nM + Cytarabine 365 nM
[13] = Example Compound 235A 780 nM + Cytarabine 111 nM
[14] = Example Compound 235A 1170 nM + Cytarabine 166 nM
[15] = Example Compound 235A 1750 nM + Cytarabine 249 nM
[16] = Example Compound 5 247 nM + Cytarabine 175 nM
[17] = Example Compound 5 555 nM + Cytarabine 393 nM
[18] = Example Compound 5 833 nM + Cytarabine 590 nM
[19] = Example Compound 5 1250 nM + Cytarabine 885 nM
[20] = Example Compound 14 519 nM + Cytarabine 175 nM
[21] = Example Compound 14 1170 nM + Cytarabine 394 nM
[22] = Example Compound 14 1750 nM + Cytarabine 589 nM
[23] = Example Compound 14 2630 nM + Cytarabine 886 nM
[24] = Example Compound 209A 96.6 nM + Cytarabine 175 nM
[25] = Example Compound 209A 217 nM + Cytarabine 393 nM
[26] = Example Compound 209A 326 nM + Cytarabine 590 nM
[27] = Example Compound 235A 90.1 nM + Cytarabine 116 nM
[28] = Example Compound 235A 135 nM + Cytarabine 174 nM
[29] = Example Compound 235A 304 nM + Cytarabine 393 nM
[30] = Example Compound 235A 456 nM + Cytarabine 589 nM
[31] = Example Compound 235A 684 nM + Cytarabine 884 nM

Q: With Nc1ccn([C@@H]2O[C@H](CO)[C@@H](O)[C@@H]2O)c(=O)n1 [Cytarabine, cytarabine] as the compound, how does the CI value [1, 4] read?
A: Its CI value is 0.670.

Q: And the Fa value [1, 4]?
A: Its Fa value is 0.3745.

Q: What about the CI value [1, 5] of the same compound?
A: The CI value was 0.790.

Q: And the Fa value [1, 5]?
A: Its Fa value is 0.4356.

Q: And the CI value [1, 6]?
A: The CI value was 0.616.

Q: What about the Fa value [1, 6] of the same compound?
A: Its Fa value is 0.6170.

Q: And the CI value [1, 7]?
A: Its CI value is 0.498.

Q: And the Fa value [1, 7]?
A: Its Fa value is 0.7754.

Q: And the CI value [1, 8]?
A: Its CI value is 0.490.

Q: What about the Fa value [1, 8] of the same compound?
A: The Fa value was 0.8591.

Q: What about the CI value [1, 9] of the same compound?
A: Its CI value is 0.777.

Q: And the Fa value [1, 9]?
A: Its Fa value is 0.3588.

Q: What about the CI value [1, 10] of the same compound?
A: Its CI value is 0.759.

Q: What about the Fa value [1, 10] of the same compound?
A: The Fa value was 0.4675.

Q: And the CI value [1, 11]?
A: The CI value was 0.474.

Q: What about the Fa value [1, 11] of the same compound?
A: Its Fa value is 0.7994.

Q: What about the CI value [1, 12] of the same compound?
A: The CI value was 0.574.

Q: What about the Fa value [1, 12] of the same compound?
A: Its Fa value is 0.8410.

Q: And the CI value [1, 13]?
A: The CI value was 0.878.

Q: And the Fa value [1, 13]?
A: The Fa value was 0.4015.

Q: And the CI value [1, 14]?
A: The CI value was 0.693.

Q: What about the Fa value [1, 14] of the same compound?
A: Its Fa value is 0.6327.

Q: What about the CI value [1, 15] of the same compound?
A: The CI value was 0.581.

Q: What about the Fa value [1, 15] of the same compound?
A: The Fa value was 0.8184.

Q: What about the CI value [2, 16] of the same compound?
A: Its CI value is 0.638.

Q: What about the Fa value [2, 16] of the same compound?
A: The Fa value was 0.4093.

Q: What about the CI value [2, 17] of the same compound?
A: The CI value was 0.553.

Q: And the Fa value [2, 17]?
A: The Fa value was 0.9212.

Q: And the CI value [2, 18]?
A: Its CI value is 0.366.

Q: What about the Fa value [2, 18] of the same compound?
A: Its Fa value is 0.9948.

Q: What about the CI value [2, 19] of the same compound?
A: Its CI value is 0.386.

Q: And the Fa value [2, 19]?
A: Its Fa value is 0.9986.

Q: And the CI value [2, 20]?
A: Its CI value is 0.766.

Q: What about the Fa value [2, 20] of the same compound?
A: Its Fa value is 0.2908.

Q: What about the CI value [2, 21] of the same compound?
A: The CI value was 0.599.

Q: What about the Fa value [2, 21] of the same compound?
A: Its Fa value is 0.8743.

Q: And the CI value [2, 22]?
A: Its CI value is 0.387.

Q: What about the Fa value [2, 22] of the same compound?
A: Its Fa value is 0.9860.

Q: What about the CI value [2, 23] of the same compound?
A: Its CI value is 0.269.

Q: And the Fa value [2, 23]?
A: The Fa value was 0.9984.

Q: And the CI value [2, 24]?
A: The CI value was 0.739.

Q: And the Fa value [2, 24]?
A: Its Fa value is 0.5055.

Q: What about the CI value [2, 25] of the same compound?
A: Its CI value is 0.510.

Q: And the Fa value [2, 25]?
A: The Fa value was 0.9736.

Q: What about the CI value [2, 26] of the same compound?
A: Its CI value is 0.330.

Q: What about the Fa value [2, 26] of the same compound?
A: The Fa value was 0.9981.

Q: What about the CI value [2, 27] of the same compound?
A: The CI value was 0.740.

Q: And the Fa value [2, 27]?
A: Its Fa value is 0.1704.

Q: And the CI value [2, 28]?
A: The CI value was 0.645.

Q: And the Fa value [2, 28]?
A: The Fa value was 0.4683.

Q: And the CI value [2, 29]?
A: The CI value was 0.510.

Q: What about the Fa value [2, 29] of the same compound?
A: Its Fa value is 0.9522.

Q: And the CI value [2, 30]?
A: The CI value was 0.365.

Q: And the Fa value [2, 30]?
A: Its Fa value is 0.9958.

Q: What about the CI value [2, 31] of the same compound?
A: The CI value was 0.374.

Q: What about the Fa value [2, 31] of the same compound?
A: Its Fa value is 0.9989.

Q: How did the IC50 [3] turn out when Cc1ccc(F)c([C@@H](C)[C@H](NS(=O)(=O)c2ccc([N+](=O)[O-])cc2)c2n[nH]c(=O)o2)c1C [Example 340, N-((1S,2R)-(6-fluoro-2,3-dimethylphenyl)-1-(5-oxo-4,5-dihydro-1,3,4-oxadiazol-2-yl)propyl)-4-nitrobenzenesulfonamide] was run?
A: The IC50 was 270 nM.

Q: How did the IC50 [3] turn out when Cc1ccc(F)c([C@@H](C)[C@H](NS(=O)(=O)c2ccc(C#N)cc2)c2n[nH]c(=O)o2)c1C [Example 341, 4-cyano-N-((1S,2R)-(6-fluoro-2,3-dimethylphenyl)-1-(5-oxo-4,5-dihydro-1,3,4-oxadiazol-2-yl)propyl)benzenesulfonamide] was run?
A: The IC50 was 410 nM.

Q: Which IC50 [3] does the source give for COc1cc(C#N)ccc1S(=O)(=O)N[C@H](c1n[nH]c(=O)o1)[C@H](C)c1c(F)ccc(C)c1C [Example 342, 4-cyano-N-((1S,2R)-(6-fluoro-2,3-dimethylphenyl)-1-(5-oxo-4,5-dihydro-1,3,4-oxadiazol-2-yl)propyl)-2-methoxybenzenesulfonamide] here?
A: The IC50 was 90 nM.

Q: For Cc1ccc(F)c([C@@H](C)[C@H](NS(=O)(=O)c2ccc(Br)c(C#N)c2)c2n[nH]c(=O)o2)c1C [Example 343, 4-bromo-3-cyano-N-((1S,2R)-(6-fluoro-2,3-dimethylphenyl)-1-(5-oxo-4,5-dihydro-1,3,4-oxadiazol-2-yl)propyl)benzenesulfonamide], which IC50 [3] is on record?
A: Its IC50 is 640 nM.

Q: For COc1ccc(-c2cc(S(=O)(=O)N[C@H](c3n[nH]c(=O)o3)[C@H](C)c3c(F)ccc(C)c3C)ccc2Cl)cc1 [Example 344, 6-chloro-N-((1S,2R)-2-(6-fluoro-2,3-dimethylphenyl)-1-(5-oxo-4,5-dihydro-1,3,4-oxadiazol-2-yl)propyl)-4′-methoxy-[1,1′-biphenyl]-3-sulfonamide], which IC50 [3] is on record?
A: Its IC50 is 720 nM.

Q: With COc1ccccc1-c1ccc(C(N)=O)c(S(=O)(=O)N[C@H](c2n[nH]c(=O)o2)[C@H](C)c2c(F)ccc(C)c2C)c1 [Example 345] as the compound, how does the IC50 [3] read?
A: Its IC50 is 250 nM.

Q: Which IC50 [3] does the source give for COc1cc(C(N)=O)ccc1S(=O)(=O)N[C@H](c1n[nH]c(=O)o1)[C@H](C)c1c(F)ccc(C)c1C [Example 346, 4-(N-((1S,2R)-(6-fluoro-2,3-dimethylphenyl)-1-(5-oxo-4,5-dihydro-1,3,4-oxadiazol-2 yl)propyl)sulfamoyl)-3-methoxybenzamide] here?
A: The IC50 was 420 nM.

Q: COc1cc(Cl)ccc1S(=O)(=O)N[C@H](c1noc(=O)[nH]1)[C@H](C)c1c(F)ccc(C)c1C [Example 349, 4-chloro-N-((1S,2R)-2-(6-fluoro-2,3-dimethylphenyl)-1-(5-oxo-4,5-dihydro-1,2,4-oxadiazol-3-yl)propyl)-2-methoxybenzenesulfonamide] was tested. Which IC50 [3] did it give?
A: Its IC50 is 250 nM.

Q: Which IC50 [3] does the source give for COc1cc(Cl)ccc1S(=O)(=O)N[C@H](c1n[nH]c(=S)[nH]1)[C@H](C)c1c(F)ccc(C)c1C [Example 350] here?
A: Its IC50 is 460 nM.
